In ChEMBL document CHEMBL5674860, “Optimized Dual-Glo Assay to identify co-culture-induced drug vulnerabilities in 3D CRC models” (2024):

What was measured:
Format in all cases: functional, Homo sapiens
Parameters in all cases: dose or concentration left out as unconfirmed
[1] = test system: Colon cancer organoid; assay: Optimized Dual-Glo assay to identify co-culture induced drug vulnerabilities using donated chemical probes and chemogenomics kinase set in O14 CRC organoid and F14 CAF mono and co-culture. […] Cell viability is reported both mono and co-culture models.
[2] = test system: Colon cancer organoid; assay: Optimized Dual-Glo assay to identify co-culture induced drug vulnerabilities using donated chemical probes and chemogenomics kinase set in O06 CRC organoid and F06 CAF mono and co-culture. […] Cell viability is reported both mono and co-culture models.
[3] = test system: Colon cancer organoid; assay: Optimized Dual-Glo assay to identify co-culture induced drug vulnerabilities using donated chemical probes and chemogenomics kinase set in O20 CRC organoid and F20 CAF mono and co-culture. […] Cell viability is reported both mono and co-culture models.
[4] = Culture type Co-Culture, Transduced with Lucferase2-P2A-EGFP lentivirus
[5] = Culture type Co-Culture, Transduced with Renilla-dsRed lentivirus
[6] = Culture type Mono-Culture, Transduced with Lucferase2-P2A-EGFP lentivirus
[7] = Culture type Mono-Culture, Transduced with Renilla-dsRed lentivirus

SMILES	Cell Viability [1, 4]	Cell Viability [1, 5]	Cell Viability [1, 6]	Cell Viability [1, 7]	Cell Viability [2, 4]	Cell Viability [2, 5]	Cell Viability [2, 6]	Cell Viability [2, 7]	Cell Viability [3, 4]	Cell Viability [3, 5]	Cell Viability [3, 6]	Cell Viability [3, 7]
Cc1nnc2c3ccccc3c(N[C@@H](C)[C@H](c3ccccc3)N(C)C)nn12	89.8317%	122.44%	117.177%	107.176%	95.7989%	115.114%	100.296%	129.772%	82.0862%	127.368%	95.9209%	100.184%
CC(C)N(CCCNC(=O)Nc1ccc(C(C)(C)C)cc1)C[C@H]1O[C@@H](n2cc(Br)c3c(N)ncnc32)[C@H](O)[C@@H]1O	69.7796%	119.823%	60.0766%	78.3641%	62.4885%	97.8527%	76.7332%	88.3272%	59.1388%	110.156%	82.1777%	84.781%
Cn1nc(C(=O)NCc2ccc(C(=O)O)cc2)cc1-c1ccc2[nH]ccc2c1 [BI 4395]	58.8492%	93.1183%	115.617%	91.6294%	92.221%	114.828%	85.3335%	79.5775%	100.657%	92.7545%	82.9051%	93.5086%
N#CN1CC[C@H](C(=O)Nc2nc3c(s2)CN(C(=O)CN=[N+]=[N-])CC3)C1 [8RK64]	91.8118%	102.385%	81.5329%	88.8457%	104.648%	104.354%	102.804%	85.3904%	67.2995%	105.29%	57.1131%	75.6901%
CC1=CC(C)=[N+]2C1=C(CCCCc1cn(CC(=O)N3CCc4nc(NC(=O)[C@H]5CCN(C#N)C5)sc4C3)nn1)c1c(C)cc(C)n1[B-]2(F)F	88.5952%	139.238%	60.7776%	90.2828%	125.029%	111.523%	94.7301%	81.9832%	77.2227%	101.216%	73.7517%	82.644%
O=C(Nc1ccc(-c2ccnc(Nc3ccc(N4CCOCC4)cc3)n2)cc1)[C@@H]1CCCN1	127.595%	79.807%	135.011%	98.0054%	100.254%	96.014%	101.806%	108.082%	138.223%	76.0213%	82.2702%	101.459%
Nc1nc(NCc2ccccc2)nc(-c2ccccc2CO)n1 [Ogerin]	77.8704%	129.106%	105.546%	105.714%	100.001%	107.856%	82.0596%	96.3715%	80.9307%	98.0569%	82.507%	92.5232%
O=C(NCc1ncc(C(F)(F)F)cc1Cl)c1ccc2c(c1)C1(CCS(=O)(=O)CC1)[C@@H](C1CC1)N2S(=O)(=O)c1ccc(F)cc1 [BAY-786]	75.9207%	99.8085%	94.4221%	104.267%	112.409%	138.316%	97.377%	88.5192%	102.274%	106.984%	104.026%	100.592%
COc1cc(C#N)ccc1S(=O)(=O)Nc1ccc2c(c1)cc(C)c(=O)n2C	68.1001%	108.689%	83.6696%	112.833%	94.9001%	111.598%	60.6858%	105.903%	96.6614%	124.149%	82.6901%	95.7551%
